From paper PMC10941260 (RSC Advances, 2024)
Read-outs that look alike come from different tables or passages of the source.

What was measured:
AChE [1] = target: T1, AChE (Electrophorus electricus, UniProt O42275); assay: Cholinesterase inhibition assay; assay type: biochemical, electric eels; details: for fold decrease in potency against AChE: compared to the most potent compound (a11)
MAO-A [2] = target: T2, MAO-A (Mus musculus, UniProt Q64133); assay: Monoamine oxidase A inhibition assay; assay type: biochemical, Mice; details: compared to (a3)
T2 sequence (Q64133 1-526): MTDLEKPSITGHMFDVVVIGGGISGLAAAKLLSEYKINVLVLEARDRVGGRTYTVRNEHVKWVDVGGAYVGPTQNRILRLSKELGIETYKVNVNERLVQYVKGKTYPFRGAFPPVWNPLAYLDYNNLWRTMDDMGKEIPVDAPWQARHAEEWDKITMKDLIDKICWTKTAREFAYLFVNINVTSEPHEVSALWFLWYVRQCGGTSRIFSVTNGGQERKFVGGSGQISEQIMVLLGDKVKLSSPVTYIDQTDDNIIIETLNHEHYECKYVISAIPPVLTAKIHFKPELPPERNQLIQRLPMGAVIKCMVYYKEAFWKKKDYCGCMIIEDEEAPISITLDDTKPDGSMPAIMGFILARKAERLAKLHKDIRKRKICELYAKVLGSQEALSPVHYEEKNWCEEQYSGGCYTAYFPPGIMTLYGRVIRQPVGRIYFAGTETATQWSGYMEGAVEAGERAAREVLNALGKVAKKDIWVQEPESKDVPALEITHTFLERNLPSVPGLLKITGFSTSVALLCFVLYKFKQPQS

MAO-B [3] = target: T3, MAO-B (Mus musculus, UniProt Q8BW75); assay: Monoamine oxidase B inhibition assay; assay type: biochemical, Mice; details: compared to the most potent compound (a12)
T3 sequence (Q8BW75 2-520): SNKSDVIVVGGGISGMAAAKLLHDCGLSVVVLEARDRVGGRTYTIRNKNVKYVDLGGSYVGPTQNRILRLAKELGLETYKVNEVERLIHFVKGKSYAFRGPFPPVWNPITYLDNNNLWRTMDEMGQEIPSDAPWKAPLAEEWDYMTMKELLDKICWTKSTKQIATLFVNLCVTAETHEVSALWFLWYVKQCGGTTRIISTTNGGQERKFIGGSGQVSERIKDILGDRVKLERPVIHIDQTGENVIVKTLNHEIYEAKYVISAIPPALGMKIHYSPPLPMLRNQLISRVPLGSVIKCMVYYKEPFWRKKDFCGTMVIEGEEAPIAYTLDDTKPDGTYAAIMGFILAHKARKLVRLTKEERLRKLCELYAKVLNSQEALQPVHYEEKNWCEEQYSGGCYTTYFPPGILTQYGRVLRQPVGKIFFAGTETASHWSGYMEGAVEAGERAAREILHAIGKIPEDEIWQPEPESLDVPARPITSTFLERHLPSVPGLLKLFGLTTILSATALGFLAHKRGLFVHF

MAO-B [4] = assay: Enzyme kinetic study; assay type: biochemical; details: Lineweaver-Burk plot, substrate p-tyramine
BChE [5] = target: T4, BChE (Equus caballus, UniProt P81908); assay: Cholinesterase inhibition assay; assay type: biochemical, horse; details: for fold decrease in activity against BChE: compared to the di-methoxy substituted compound, printed as (a5)
T4 sequence (P81908 whole entry): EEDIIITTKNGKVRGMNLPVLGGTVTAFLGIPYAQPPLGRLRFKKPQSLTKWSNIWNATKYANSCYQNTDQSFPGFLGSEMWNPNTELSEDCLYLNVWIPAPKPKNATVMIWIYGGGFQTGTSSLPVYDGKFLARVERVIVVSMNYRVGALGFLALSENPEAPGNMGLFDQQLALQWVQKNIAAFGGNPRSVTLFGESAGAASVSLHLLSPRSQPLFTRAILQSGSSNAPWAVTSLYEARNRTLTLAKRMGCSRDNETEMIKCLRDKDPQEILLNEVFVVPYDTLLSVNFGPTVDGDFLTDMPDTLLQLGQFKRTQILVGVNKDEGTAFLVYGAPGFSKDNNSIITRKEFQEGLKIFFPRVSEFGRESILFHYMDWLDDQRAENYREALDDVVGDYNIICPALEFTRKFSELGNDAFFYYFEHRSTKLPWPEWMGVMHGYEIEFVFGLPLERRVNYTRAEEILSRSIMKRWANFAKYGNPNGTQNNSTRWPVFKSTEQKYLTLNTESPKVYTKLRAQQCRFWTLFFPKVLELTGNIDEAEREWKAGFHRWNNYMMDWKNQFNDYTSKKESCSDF

AChE [6] = target: T1, AChE; assay: Enzyme kinetic study; assay type: biochemical; details: Lineweaver-Burk plot, substrate ATCII
BChE [7] = target: T4, BChE; assay: Enzyme kinetic study; assay type: biochemical; details: Lineweaver-Burk plot, substrate BTCII
MAO-A [8] = assay: Enzyme kinetic study; assay type: biochemical; details: Lineweaver-Burk plot, substrate p-tyramine
[9] = read-out: IC50 BChE, N/A = Not active (footnote b)

T1 sequence (O42275 24-633): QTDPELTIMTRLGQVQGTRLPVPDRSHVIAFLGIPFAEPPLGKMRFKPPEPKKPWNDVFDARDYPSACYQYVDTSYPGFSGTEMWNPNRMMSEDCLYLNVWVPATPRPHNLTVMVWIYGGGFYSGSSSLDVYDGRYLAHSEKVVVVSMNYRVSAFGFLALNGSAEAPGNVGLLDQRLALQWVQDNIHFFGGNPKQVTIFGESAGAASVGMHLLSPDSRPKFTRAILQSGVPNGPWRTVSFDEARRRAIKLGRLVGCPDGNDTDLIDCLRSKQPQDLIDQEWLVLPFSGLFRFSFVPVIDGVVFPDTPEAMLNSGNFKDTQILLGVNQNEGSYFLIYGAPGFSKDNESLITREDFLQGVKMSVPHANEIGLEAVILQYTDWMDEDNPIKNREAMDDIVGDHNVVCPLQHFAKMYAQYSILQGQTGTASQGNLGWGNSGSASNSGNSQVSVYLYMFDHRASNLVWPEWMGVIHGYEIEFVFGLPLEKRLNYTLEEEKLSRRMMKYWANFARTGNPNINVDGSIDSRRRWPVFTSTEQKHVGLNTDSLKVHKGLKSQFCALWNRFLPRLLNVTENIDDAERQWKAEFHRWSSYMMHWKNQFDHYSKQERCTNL

Molecule | IC50 (AChE [1]) | fold decrease in potency against AChE (AChE [1]) | IC50 (AChE [1]; read-out: IC50 AChE) | also measured
O=S(=O)(Nc1ccc(I)cc1)c1cccc2cccnc12 [a8, N-(4-Iodophenyl)quinoline-8-sulfonamide] | 1150 ± 720 nM | ~2 fold |  | 
O=S(=O)(NCc1ccccc1Cl)c1cccc2cccnc12 [a16, N-(2-Chlorobenzyl)-8-quinolinesulfonamide] | 1920 ± 870 nM | ~4 fold |  | 
Cc1ccc(F)c(CNS(=O)(=O)c2cccc3cccnc23)c1 [a2, N-(2-Fluoro-5-methylphenzyl)quinoline-8-sulfonamide] |  | ~3 fold | 2580 ± 970 nM | fold decrease in activity against MAO-A (MAO-A [2]): 4 fold; fold reduction in potency against MAO-B (MAO-B [3]): 4 fold
N-(4-Florobenzyl)-8-quinolinesulfonamide [a12] |  |  | 2650 ± 970 nM | mode of inhibition toward MAO-B (MAO-B [4]): competitive inhibition; fold decrease in activity against MAO-A (MAO-A [2]): 2 fold; IC50 (BChE [5]; [9]): 1160 ± 770 nM
O=S(=O)(NCC1CCCCC1)c1cccc2cccnc12 [a10, N-(Cyclohexylmethyl)quinoline-8-sulfonamide] | 1360 ± 770 nM |  |  | 
COc1ccc(CNS(=O)(=O)c2cccc3cccnc23)cc1 [a18, N-(4-Methoxybenzyl)-8-quinolinesulfonamide] | 1010 ± 610 nM | 2 fold |  | IC50 (BChE [5]): 2780 ± 920 nM; fold decrease in activity against BChE (BChE [5]): 2 fold
O=S(=O)(NCc1ccc(Cl)cc1Cl)c1cccc2cccnc12 [a15, N-(2,4-Dichlorobenzyl)-8-quinolinesulfonamide] | 1400 ± 540 nM | ~2.5 fold |  | 
O=S(=O)(NCc1cc(F)cc(C(F)(F)F)c1)c1cccc2cccnc12 [a14, N-(3-Fluoro-5-(trifluoromethyl)benzyl)quinoline-8-sulfonamide] |  |  | 3060 ± 770 nM | IC50 (BChE [5]; [9]): 1180 ± 570 nM
N-(2-Hydroxyphenyl)quinoline-8-sulfonamide [a11] |  |  | 580 ± 50 nM | mode of inhibition toward AChE (AChE [6]): competitive inhibition; fold reduction in potency against MAO-B (MAO-B [3]): 2 fold
O=S(=O)(NCc1ccc(Cl)cc1)c1cccc2cccnc12 [a4, N-(4-Chlorobenzyl)quinoline-8-sulfonamide] | 2180 ± 1170 nM | ~4 fold |  | 
N#Cc1ccc(NS(=O)(=O)c2cccc3cccnc23)cc1 [a9, N-(4-Cyanophenyl)quinoline-8-sulfonamide] | 3780 ± 920 nM | 7 fold |  | 
N-(2,3-Dihydro-1H-benzo[d]imidazole-2-yl)quinoline-8-sulfonamide [a7] |  |  | 1730 ± 870 nM | fold reduction in potency against MAO-B (MAO-B [3]): 2 fold
O=S(=O)(Nc1cccc(I)c1)c1cccc2cccnc12 [a1, N-(3-Iodophenyl)quinoline-8-sulfonamide] | 1110 ± 570 nM | ~2 fold |  | 
N-(2,6-Difluorophenyl)quinoline-8-sulfonamide [a3] |  | ~3 fold | 1010 ± 590 nM | fold reduction in potency against MAO-B (MAO-B [3]): 4 fold
N-(3,4-Dimethoxybenzyl)quinoline-8-sulfonamide [a6] |  | 2 fold | 1110 ± 470 nM | mode of inhibition toward BChE (BChE [7]): competitive inhibition; IC50 (BChE [5]; [9]): 1100 ± 890 nM
N-(2-Fluorobenzyl)quinoline-8-sulfonamide [a13] |  | 3 fold | 1650 ± 970 nM | fold decrease in activity against MAO-A (MAO-A [2]): 2 fold; fold reduction in potency against MAO-B (MAO-B [3]): 3 fold
O=S(=O)(NCc1cccc(Cl)c1)c1cccc2cccnc12 [a5, N-(3-Chlorobenzyl)quinoline-8-sulfonamide] | 1950 ± 1070 nM | ~4 fold |  | mode of inhibition toward MAO-A (MAO-A [8]): competitive inhibition; IC50 (BChE [5]): 2840 ± 1070 nM; fold decrease in activity against BChE (BChE [5]): ~2 fold
